Active and inactive are the calls of the source.

Assay [1] deals with T1, Fatty acid synthase (Homo sapiens, UniProt P49327). Kind of assay: FAS thioesterase domain inhibitors, dose response, biochemical, kinetic fluorescence intensity (AID 624326).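 Also: rate of fluorescence rise from hydrolysis of a fluorogenic O-methyl fluorescein ester substrate.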 It is filed as functional.
Assay [2] addresses T1, Fatty acid synthase. Kind of assay: FAS thioesterase domain inhibitors, dose response, biochemical, endpoint fluorescence intensity, uHTS hits (AID 624327).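 Also: fluorescence from hydrolysis of an O-methyl fluorescein acyl ester substrate by the enzyme.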 It is filed as functional.
Assay [3] deals with T2, Corticotropin-releasing factor receptor 2/Corticotropin-releasing factor-binding protein (Homo sapiens, UniProt P24387+Q13324).
T2 sequence (Q13324 whole entry): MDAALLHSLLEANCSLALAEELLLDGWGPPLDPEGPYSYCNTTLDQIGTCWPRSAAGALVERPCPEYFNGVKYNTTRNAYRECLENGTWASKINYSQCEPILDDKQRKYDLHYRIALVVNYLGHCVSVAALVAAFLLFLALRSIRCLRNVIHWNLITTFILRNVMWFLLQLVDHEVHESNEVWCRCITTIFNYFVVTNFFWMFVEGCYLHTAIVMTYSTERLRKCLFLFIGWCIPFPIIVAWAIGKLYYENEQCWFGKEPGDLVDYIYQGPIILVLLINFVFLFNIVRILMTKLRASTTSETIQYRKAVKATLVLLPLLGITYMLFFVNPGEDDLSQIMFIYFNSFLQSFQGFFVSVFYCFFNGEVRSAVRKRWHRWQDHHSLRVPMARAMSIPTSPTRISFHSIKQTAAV
T2 sequence (P24387 whole entry): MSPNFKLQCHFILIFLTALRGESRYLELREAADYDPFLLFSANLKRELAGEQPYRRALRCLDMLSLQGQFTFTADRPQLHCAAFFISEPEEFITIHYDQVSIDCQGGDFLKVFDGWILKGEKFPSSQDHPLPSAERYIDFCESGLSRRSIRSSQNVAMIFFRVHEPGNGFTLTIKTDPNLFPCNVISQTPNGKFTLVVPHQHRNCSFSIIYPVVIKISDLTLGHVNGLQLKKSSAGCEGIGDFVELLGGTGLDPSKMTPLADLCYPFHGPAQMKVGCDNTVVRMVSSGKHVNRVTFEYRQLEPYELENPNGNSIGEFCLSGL
Nature of the assay: activators of CRF receptor 2 with binding protein – uHTS hits, confirmation (AID 602473). It counts as functional. As to conditions: read-out: EC50_Mean.

Assay [4] has as its target T3, Endoribonuclease toxin MazF (Escherichia coli K-12, UniProt P0AE70).
T3 sequence (P0AE70 whole entry): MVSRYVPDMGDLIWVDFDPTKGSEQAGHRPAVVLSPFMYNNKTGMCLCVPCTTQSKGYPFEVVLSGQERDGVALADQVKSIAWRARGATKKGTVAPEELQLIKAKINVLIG
Nature of the assay: fluorescent RNA oligo signal without MazF, dose response, counter-screen for MazEF activator project, biochemical, fluorescence, single-stranded RNase substrate (AID 588502). It is filed as functional.

The target in assay [5] is T4, RNA-binding protein pos-1 (Caenorhabditis elegans, UniProt G5EF15).
T4 sequence (G5EF15 whole entry): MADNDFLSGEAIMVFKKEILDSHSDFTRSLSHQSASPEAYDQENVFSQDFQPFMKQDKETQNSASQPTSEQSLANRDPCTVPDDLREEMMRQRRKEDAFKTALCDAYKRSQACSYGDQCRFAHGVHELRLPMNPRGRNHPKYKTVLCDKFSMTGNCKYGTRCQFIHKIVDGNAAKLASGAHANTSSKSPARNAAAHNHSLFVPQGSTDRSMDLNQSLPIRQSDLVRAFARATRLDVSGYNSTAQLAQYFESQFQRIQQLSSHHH
Nature of the assay: inhibitors of POS-1/mex-3 RNA binding, dose response, biochemical, fluorescence polarization (AID 1964).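 Also: purified POS-1 fused to maltose binding protein made in E. coli; potency of compounds blocking POS-1 binding to fluorescent RNA.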

Assay [6] addresses T5, Zinc finger protein mex-5 (Caenorhabditis elegans, UniProt Q9XUB2).
T5 sequence (Q9XUB2 whole entry): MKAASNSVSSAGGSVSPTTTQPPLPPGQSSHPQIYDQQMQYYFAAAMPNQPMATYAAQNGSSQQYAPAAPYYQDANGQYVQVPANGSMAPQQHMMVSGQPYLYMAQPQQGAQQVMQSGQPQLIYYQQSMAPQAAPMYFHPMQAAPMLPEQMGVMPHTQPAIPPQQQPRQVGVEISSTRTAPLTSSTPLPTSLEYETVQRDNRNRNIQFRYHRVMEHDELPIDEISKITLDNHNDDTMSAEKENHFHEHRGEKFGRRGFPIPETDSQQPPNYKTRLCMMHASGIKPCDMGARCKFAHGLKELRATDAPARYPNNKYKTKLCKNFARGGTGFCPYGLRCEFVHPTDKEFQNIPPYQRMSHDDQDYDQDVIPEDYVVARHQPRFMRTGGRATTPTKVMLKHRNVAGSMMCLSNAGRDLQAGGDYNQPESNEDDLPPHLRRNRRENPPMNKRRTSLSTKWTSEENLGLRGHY
Nature of the assay: MEX-5/TCR-2 RNA interaction inhibitors, dose response, biochemical, C. elegans, fluorescence polarization (AID 1960). Background: Polarisation of emitted light reports the rotation of a fluorescent probe.

The target in assay [7] is T3, Endoribonuclease toxin MazF. Kind of assay: MazF toxin RNase activators, dose response, biochemical, fluorescence, single-stranded RNA substrate, uHTS hits (AID 588481). It is filed as functional.
Assay [8] in a line: microbe, parasite or virus in culture. As to conditions: Mycobacterium tuberculosis. It is filed as functional.
For assay [9], the target named is T6, Apoptotic protease-activating factor 1 (Homo sapiens, UniProt O14727).
T6 sequence (O14727 whole entry): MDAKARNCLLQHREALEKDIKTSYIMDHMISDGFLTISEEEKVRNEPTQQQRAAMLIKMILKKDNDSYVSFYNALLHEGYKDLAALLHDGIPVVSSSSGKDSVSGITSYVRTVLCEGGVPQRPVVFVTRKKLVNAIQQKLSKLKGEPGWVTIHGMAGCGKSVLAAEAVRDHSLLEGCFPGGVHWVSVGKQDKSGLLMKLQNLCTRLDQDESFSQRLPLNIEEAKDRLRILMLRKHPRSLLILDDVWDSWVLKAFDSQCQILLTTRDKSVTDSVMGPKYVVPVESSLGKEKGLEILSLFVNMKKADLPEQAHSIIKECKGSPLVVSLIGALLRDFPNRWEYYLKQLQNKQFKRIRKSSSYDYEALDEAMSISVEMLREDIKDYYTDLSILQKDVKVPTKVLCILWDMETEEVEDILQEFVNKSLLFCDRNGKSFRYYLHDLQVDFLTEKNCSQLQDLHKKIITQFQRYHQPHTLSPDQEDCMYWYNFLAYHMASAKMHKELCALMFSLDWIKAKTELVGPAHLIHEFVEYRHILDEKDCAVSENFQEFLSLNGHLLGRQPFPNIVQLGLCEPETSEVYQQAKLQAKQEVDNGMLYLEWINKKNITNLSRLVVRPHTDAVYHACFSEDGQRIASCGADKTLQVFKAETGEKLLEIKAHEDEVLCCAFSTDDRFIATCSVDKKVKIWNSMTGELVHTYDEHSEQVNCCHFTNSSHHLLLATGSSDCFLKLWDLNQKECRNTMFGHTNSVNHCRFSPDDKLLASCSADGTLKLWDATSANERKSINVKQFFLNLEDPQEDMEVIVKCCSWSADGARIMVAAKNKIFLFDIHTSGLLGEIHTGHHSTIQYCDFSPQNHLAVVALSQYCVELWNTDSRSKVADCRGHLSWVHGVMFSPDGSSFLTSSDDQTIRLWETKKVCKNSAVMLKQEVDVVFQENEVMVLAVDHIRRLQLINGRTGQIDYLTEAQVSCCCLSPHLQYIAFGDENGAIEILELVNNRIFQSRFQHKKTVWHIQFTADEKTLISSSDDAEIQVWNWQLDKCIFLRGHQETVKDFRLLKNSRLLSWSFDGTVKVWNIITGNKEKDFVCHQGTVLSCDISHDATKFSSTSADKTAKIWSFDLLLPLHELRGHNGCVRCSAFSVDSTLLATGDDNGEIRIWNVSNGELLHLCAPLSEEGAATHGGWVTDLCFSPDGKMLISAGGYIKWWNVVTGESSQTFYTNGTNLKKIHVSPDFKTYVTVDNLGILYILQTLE
It is filed as functional.

Assay [10] deals with T7, Ubiquitin-conjugating enzyme E2 N (Homo sapiens, UniProt P61088).
T7 sequence (P61088 whole entry): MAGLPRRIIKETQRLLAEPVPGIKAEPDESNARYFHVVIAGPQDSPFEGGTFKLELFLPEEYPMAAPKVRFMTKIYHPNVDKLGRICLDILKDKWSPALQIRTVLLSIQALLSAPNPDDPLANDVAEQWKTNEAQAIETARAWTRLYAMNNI
It counts as functional.

The nature of assay [11]: inhibitors of firefly luciferase expression or activity, dose response, H4 neuroglioma cells, luminescence (AID 1990). It is filed as functional, cell-based.
A short description of assay [12]: inhibitors of SNCA 5'UTR-driven reporter translation, confirmation, H4 neuroglioma cells, luminescence (AID 1988). It counts as functional, cell-based.
A short description of assay [13]: Luminescence Cell-Based Dose Response HTS to Identify Inhibitors of 5'UTR Stem-Loop Driven Prion Protein mRNA Translation in H4 Neuroglioblastoma Cells. [Related pubchem assays: 1827 (Project Summary), 1813 (Primary HTS)]. It is filed as functional.
A short description of assay [14]: Luminescence Cell-Based Dose Retest to Confirm Inhibitors of Cancer Stem Cells. [Related pubchem assays (depositor defined):AID2717, AID2721]. It is filed as functional. Particulars: Homo sapiens.
The test system of assay [15] is INS1. Nature of the assay: beta cell apoptosis inhibitors, cytokine rescue, dose response, luminescence, retest (AID 449756).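 Also: cell death triggered by IL-1 beta plus TNF-alpha plus IFN-gamma mixture; protective hits raise ATP signal compared with cytokine alone wells.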 It is filed as functional, cell-based. As to conditions: Rattus norvegicus.
Assay [16] can be described thus: growth suppression of beta-catenin-knockout colon cells, dose response, cell-based, HCT116, human colon tumor (AID 1045).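 Also: HCT116 colon tumor cells with beta catenin knocked out; cells exposed to compound for 60 hours.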 It counts as functional.
The target of assay [17] is Heat shock protein HSP 90-alpha (Homo sapiens, UniProt P07900). It counts as functional, organism-based.
Assay [18] in a line: growth suppression of PTEN-null colon cells, dose response, cell-based, HCT116 PTEN knockout (AID 1047).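 Also: HCT116 colon tumor cells with PTEN knocked out; cells exposed to compound for 60 hours before readout; potency for loss of cell viability measured by luminescence.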 It is filed as functional.
Assay [19] can be described thus: LGR2 antagonists, dose response, cell-based, HEK293, CRE-luciferase reporter, cherry pick, set 2 (AID 743343).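 Also: transfected cells were stimulated with diluted bursicon conditioned medium after compound addition.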 It is filed as functional. Background: A reporter such as luciferase makes a cellular process visible.
A short description of assay [20]: non-specific cell cytotoxicity, dose response, cytotoxicity control for PAX8 inhibitor project, plate reader, dry powder samples (AID 743021). It counts as functional, cell-based.
Assay [21] in a line: MC4R antagonists, dose response, counter-screen for LGR2 antagonist project, cell-based, plate reader, cherry pick (AID 743444).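 Also: transfected HEK 293 cells stimulated with alpha-MSH peptide; potency of inhibitors of the alpha-MSH evoked signal.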 It counts as functional. On the technique in general: Counterscreens check selectivity or assay interference.
For assay [22], the target named is Paired box protein Pax-8 (Homo sapiens, UniProt Q06710). Kind of assay: inhibitors of PAX8-driven TPO luciferase reporter, dose response, RMG-I cells, cherry-pick (AID 687027).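 Also: luciferase reporter driven by Pax8 target thyroperoxidase promoter measured by SteadyGlo luminescence.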 It is filed as functional, cell-based.
Chain of Paired box protein Pax-8 (Q06710 whole entry): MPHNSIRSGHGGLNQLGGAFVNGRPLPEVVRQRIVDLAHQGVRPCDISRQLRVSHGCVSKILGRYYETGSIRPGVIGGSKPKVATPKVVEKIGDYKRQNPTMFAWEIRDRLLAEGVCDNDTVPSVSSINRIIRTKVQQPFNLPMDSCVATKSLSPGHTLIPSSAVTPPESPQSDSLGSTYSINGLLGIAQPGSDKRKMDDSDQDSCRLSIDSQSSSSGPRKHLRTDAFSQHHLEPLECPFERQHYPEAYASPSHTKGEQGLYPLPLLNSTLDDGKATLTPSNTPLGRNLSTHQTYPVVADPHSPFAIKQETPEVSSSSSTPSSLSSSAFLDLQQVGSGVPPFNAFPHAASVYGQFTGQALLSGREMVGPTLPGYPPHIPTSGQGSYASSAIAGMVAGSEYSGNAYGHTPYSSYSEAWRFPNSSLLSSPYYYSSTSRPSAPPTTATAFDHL

T1 sequence (P49327 whole entry, the tested form may be a part): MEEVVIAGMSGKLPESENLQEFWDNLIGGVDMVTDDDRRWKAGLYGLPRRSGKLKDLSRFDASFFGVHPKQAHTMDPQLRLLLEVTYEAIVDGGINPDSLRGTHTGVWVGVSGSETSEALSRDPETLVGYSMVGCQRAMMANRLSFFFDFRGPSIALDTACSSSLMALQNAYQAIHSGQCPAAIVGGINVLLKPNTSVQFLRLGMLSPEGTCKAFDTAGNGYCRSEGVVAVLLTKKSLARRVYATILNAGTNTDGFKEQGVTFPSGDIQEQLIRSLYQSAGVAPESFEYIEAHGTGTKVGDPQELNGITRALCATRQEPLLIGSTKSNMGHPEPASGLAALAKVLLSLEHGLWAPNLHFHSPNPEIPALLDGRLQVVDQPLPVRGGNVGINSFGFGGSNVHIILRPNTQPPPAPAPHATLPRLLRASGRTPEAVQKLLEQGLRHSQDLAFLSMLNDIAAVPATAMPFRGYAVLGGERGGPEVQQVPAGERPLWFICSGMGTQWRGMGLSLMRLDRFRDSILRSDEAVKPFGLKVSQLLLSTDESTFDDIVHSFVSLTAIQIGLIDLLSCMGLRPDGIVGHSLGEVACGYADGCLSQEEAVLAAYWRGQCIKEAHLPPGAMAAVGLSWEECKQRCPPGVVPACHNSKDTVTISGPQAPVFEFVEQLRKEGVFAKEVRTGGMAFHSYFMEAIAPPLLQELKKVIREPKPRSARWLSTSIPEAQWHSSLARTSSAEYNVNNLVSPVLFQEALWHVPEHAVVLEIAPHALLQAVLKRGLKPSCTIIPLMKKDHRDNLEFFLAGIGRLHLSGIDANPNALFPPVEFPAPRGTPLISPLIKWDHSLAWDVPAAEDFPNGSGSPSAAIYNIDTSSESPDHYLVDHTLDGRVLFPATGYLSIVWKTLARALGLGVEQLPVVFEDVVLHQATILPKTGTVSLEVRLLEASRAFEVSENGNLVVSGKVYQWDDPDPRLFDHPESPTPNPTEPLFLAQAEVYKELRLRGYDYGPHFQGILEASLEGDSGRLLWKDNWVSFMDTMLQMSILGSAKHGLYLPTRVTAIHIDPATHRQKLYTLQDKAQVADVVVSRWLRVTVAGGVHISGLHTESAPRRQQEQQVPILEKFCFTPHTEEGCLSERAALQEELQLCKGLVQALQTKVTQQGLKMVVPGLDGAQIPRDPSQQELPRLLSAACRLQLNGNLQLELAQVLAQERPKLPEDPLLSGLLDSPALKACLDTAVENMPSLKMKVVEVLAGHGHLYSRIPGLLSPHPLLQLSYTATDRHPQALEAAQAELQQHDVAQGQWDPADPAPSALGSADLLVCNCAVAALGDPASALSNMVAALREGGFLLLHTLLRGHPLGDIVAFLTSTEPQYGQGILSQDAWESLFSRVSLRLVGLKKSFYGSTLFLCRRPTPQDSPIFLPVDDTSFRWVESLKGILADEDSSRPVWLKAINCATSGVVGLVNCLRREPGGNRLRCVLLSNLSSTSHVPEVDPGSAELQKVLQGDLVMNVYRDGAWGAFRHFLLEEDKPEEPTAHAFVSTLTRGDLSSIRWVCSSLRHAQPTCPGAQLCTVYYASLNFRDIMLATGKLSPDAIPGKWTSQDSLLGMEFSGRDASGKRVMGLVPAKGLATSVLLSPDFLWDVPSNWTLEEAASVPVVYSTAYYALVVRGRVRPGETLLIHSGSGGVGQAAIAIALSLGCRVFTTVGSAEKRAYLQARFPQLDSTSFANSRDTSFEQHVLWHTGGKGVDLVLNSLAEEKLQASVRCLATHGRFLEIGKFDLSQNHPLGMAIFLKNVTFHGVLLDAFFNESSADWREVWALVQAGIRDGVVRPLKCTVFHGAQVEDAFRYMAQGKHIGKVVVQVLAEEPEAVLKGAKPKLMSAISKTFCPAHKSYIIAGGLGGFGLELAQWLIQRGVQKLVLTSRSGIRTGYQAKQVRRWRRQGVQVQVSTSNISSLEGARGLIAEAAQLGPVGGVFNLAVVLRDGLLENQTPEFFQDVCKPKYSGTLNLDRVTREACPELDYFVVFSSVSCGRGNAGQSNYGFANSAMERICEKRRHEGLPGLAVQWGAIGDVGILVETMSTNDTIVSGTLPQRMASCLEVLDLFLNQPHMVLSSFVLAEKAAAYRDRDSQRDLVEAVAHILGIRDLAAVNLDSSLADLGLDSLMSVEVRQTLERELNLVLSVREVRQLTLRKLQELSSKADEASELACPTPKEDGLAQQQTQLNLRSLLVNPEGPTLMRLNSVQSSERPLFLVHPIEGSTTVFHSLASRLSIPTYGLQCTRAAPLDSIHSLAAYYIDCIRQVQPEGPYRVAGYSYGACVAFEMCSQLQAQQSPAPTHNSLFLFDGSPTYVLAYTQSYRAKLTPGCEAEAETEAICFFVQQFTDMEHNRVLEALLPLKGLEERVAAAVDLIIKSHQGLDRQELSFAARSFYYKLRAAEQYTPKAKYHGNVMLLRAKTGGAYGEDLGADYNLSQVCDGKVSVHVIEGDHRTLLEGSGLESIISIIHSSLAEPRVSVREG

One may read the IC50 as the concentration at which inhibition is half-maximal. For `CC(C)(C)OC(=O)CNC(=O)c1[nH]cnc1C(=O)N[C@@H](CCCCNC(=O)OC(C)(C)C)C(=O)OC(C)(C)C`, the IC50 is 0.364 µM (active) in [1] and 0.517 µM (active) in [2].

On to `COC(=O)Cn1cc(/C=C2\C(=O)NC(=O)N(c3ccc(OC)cc3)C2=O)c2ccccc21`, for which the EC50 in assay [3] is 5.57 µM (active); in assay [4], 71.4 µM (inactive); in [5], 69.1 µM (active); in assay [6], 6.99 µM (active); in assay [7], > 99 µM (inactive).

Consider `O=C(CN1CCN(C(=O)COc2cccc(F)c2)CC1)Nc1ccc(Cl)c(C(F)(F)F)c1`, for which the CC50 in [8] was > 40 µM (active).

On to `CC(C)(C)c1ccc(OCCC(=O)OCC(=O)NCc2ccccc2)cc1`, for which the figures for the IC50 in [1] and in [2] were 6.7 µM (active) and 6.55 µM (active), respectively.

As for `O=C(CCn1c2c(c3ccccc31)CCCC2)NNC(=O)c1ccc(Cl)c([N+](=O)[O-])c1`, the IC50 in assay [9] is 0.798 µM (active).

For `O=C(OCC(=O)N1CCc2ccccc2C1)c1ccc(Cl)c([N+](=O)[O-])c1`, the IC50 in assay [1] is 2.41 µM (active); in assay [2] it was 5.45 µM (active).

As usually defined, the AC50 is the midpoint of the concentration-response curve, whichever way the signal moves. In the case of `CCN1CCN(Cc2ccc(NC(=O)c3cc(NC(=O)c4cncc(-c5cccs5)c4)cc(OC)c3)cc2C(F)(F)F)CC1`, in [8], the CC50 is 8.62 µM (active). For the same molecule, the IC50 in assay [10] was > 20 µM (inactive). Besides, the EC50 is > 120 µM (not active) in assay [11], > 120 µM (not active) in [12] and 8.93 µM (active) in assay [13]. Besides, the AC50 in assay [14] is 7.38 µM (active).

For the molecule `CCCCOc1ccc(C(=O)NCC(=O)NCC(c2cccs2)N2CCOCC2)cc1` (stereo not given), in assay [9], the IC50 is > 100 µM (inactive).

Consider `Cc1cc(Br)ccc1NC(=O)C(C)c1ccc([N+](=O)[O-])cc1` (stereo not given), for which the IC50 in assay [1] is 18.8 µM (active); in [2], 31.9 µM (inactive).

Take `Cn1c(SCC(=O)N/N=C/c2ccc([N+](=O)[O-])s2)nnc1-c1ccc(Cl)cc1`: the AC50 in assay [15] was 9.33 µM (active); in assay [17], 2.55 µM (active). Besides, the EC50 in assay [16] was 4.82 µM (active); in assay [18], 4.91 µM (active).

Consider `Cc1ccc2nc(-c3ccc(Br)cc3)cn2c1`, for which the AC50 was 662 nM (active) in [19], 24.6 µM (active) in assay [20], 704 nM (active) in assay [21] and 11.2 µM (active) in assay [22].

For the origin of these results see ChEMBL document CHEMBL1201862, “PubChem BioAssay data set” (2004).
